Values quoted from earlier work, collected in patent US12193471B2, “Aerosolizable formulation” (NICOVENTURES TRADING LIMITED, priority 2018, dated 2025).

Conditions: compared to base cyclodextrins such as β-cyclodextrin

In the case of 2-hydroxy-propyl-β-cyclodextrin, the solubility in water is listed as “increased solubility in water”.
